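Following 48 hours of exposure in 96-well plates, responses at five concentrations were used to interpolate endpoints linearly. The concentration for full growth arrest is given as TGI.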
Columns and labels:
Assay in all cases: growth of human tumour cells (NCI), 48 h
BT-549 breast = tested on: BT-549 breast
MDA-MB-231 breast = tested on: MDA-MB-231 breast
NCI-H23 lung = tested on: NCI-H23 lung
HCT-116 colon = tested on: HCT-116 colon
RPMI-8226 leukemia = tested on: RPMI-8226 leukemia
NCI-H460 lung = tested on: NCI-H460 lung
M14 melanoma = tested on: M14 melanoma
OVCAR-4 ovarian = tested on: OVCAR-4 ovarian
ACHN renal = tested on: ACHN renal
HL-60(TB) leukemia = tested on: HL-60(TB) leukemia
SF-295 CNS = tested on: SF-295 CNS
NCI/ADR-RES ovarian = tested on: NCI/ADR-RES ovarian
UO-31 renal = tested on: UO-31 renal
SK-MEL-5 melanoma = tested on: SK-MEL-5 melanoma
OVCAR-5 ovarian = tested on: OVCAR-5 ovarian
SK-MEL-2 melanoma = tested on: SK-MEL-2 melanoma
CAKI-1 renal = tested on: CAKI-1 renal
TK-10 renal = tested on: TK-10 renal
HOP-92 NSCLC = tested on: HOP-92 NSCLC
SF-268 CNS = tested on: SF-268 CNS

SMILES	TGI (BT-549 breast) [µM]	TGI (MDA-MB-231 breast) [µM]	TGI (NCI-H23 lung) [µM]	TGI (HCT-116 colon) [µM]	TGI (RPMI-8226 leukemia) [µM]	TGI (NCI-H460 lung) [µM]	TGI (M14 melanoma) [µM]	TGI (OVCAR-4 ovarian) [µM]	TGI (ACHN renal) [µM]	TGI (HL-60(TB) leukemia) [µM]	TGI (SF-295 CNS) [µM]	TGI (NCI/ADR-RES ovarian) [µM]	TGI (UO-31 renal) [µM]	TGI (SK-MEL-5 melanoma) [µM]	TGI (OVCAR-5 ovarian) [µM]	TGI (SK-MEL-2 melanoma) [µM]	TGI (CAKI-1 renal) [µM]	TGI (TK-10 renal) [µM]	TGI (HOP-92 NSCLC) [µM]	TGI (SF-268 CNS) [µM]
CSC1=C(C(=O)N(COCC[Si](C)(C)C)c2ccccc2Br)CCC(C(C)(C)C)C1 (centres undefined)	> 100	30.5	> 100	18.3	> 100	44.1	76.3	> 100	51.2	11.8	25.6	> 100	27	27.2	28.7	31.7	18.1	> 100	45.8	–
CCOC(=O)c1ccc(OCc2nc3cc(C(F)(F)F)ccc3nc2-c2ccccc2)cc1	> 100	> 100	> 100	> 100	> 100	> 100	> 100	> 100	> 100	> 100	> 100	> 100	> 100	> 100	> 100	> 100	> 100	> 100	> 100	> 100
O=C1c2ccccc2-c2nc(-c3cccs3)cc3c2c1nc1ccccc13	> 100	> 100	38.8	42.2	> 100	> 100	18.3	> 100	> 100	26.5	> 100	> 100	> 100	–	> 100	32	> 100	> 100	> 100	56.8
CC[C@]1(Cc2ccc(OC)c(OC)c2)C=[N+]([O-])O[C@H](OC2CCCCC2c2ccccc2)[C@@H]1OC(C)=O (some centres undefined)	> 100	> 100	> 100	> 100	69.7	> 100	> 100	> 100	> 100	40.9	> 100	> 100	> 100	> 100	> 100	> 100	56.8	> 100	> 100	–
O=C(c1ccc(-c2ccccc2)cc1)N(Cc1cccnc1)C(=S)N(Cc1cccnc1)C(=O)c1ccc(-c2ccccc2)cc1	> 100	> 100	> 100	> 100	72.4	> 100	> 100	> 100	> 100	> 100	> 100	> 100	> 100	> 100	> 100	> 100	> 100	> 100	> 100	> 100
Cc1cc(C)c(-n2c(C)c(C)c(C#N)c2N)c(C)c1	> 100	> 100	> 100	48.9	54.6	78.6	> 100	> 100	78.9	37	> 100	> 100	> 100	37.2	> 100	51.7	> 100	> 100	74.4	> 100
Nc1c(C(=O)c2ccc(Cl)cc2)[nH]c(Nc2ccc(Cl)cc2)c1C(=S)Nc1ccccc1	8.02	18.1	11.9	13.4	56.3	20.8	34.1	5.14	5.08	> 100	5.87	13.3	15.1	–	27.3	25.8	23.2	16.5	22.2	17.8
Clc1ccc(-c2c3nc(c(-c4ccc(Cl)cc4)c4ccc([nH]4)c(-c4ccc(Cl)cc4)c4nc(c(-c5ccc(Cl)cc5)c5ccc2[nH]5)C=C4)C=C3)cc1	> 100	> 100	> 100	–	> 100	> 100	> 100	> 100	> 100	> 100	> 100	> 100	> 100	> 100	> 100	> 100	> 100	> 100	> 100	> 100
COc1ccc(OC)c2sc(N3C(=O)/C(=C/c4ccc(SC)cc4)N=C3c3ccccc3)nc12	88	> 100	–	41.3	63.3	> 100	46.1	87.6	86.6	64.9	> 100	89.9	63.7	33.8	> 100	42.7	> 100	> 100	> 100	88.1
CC(=O)NC1C(O)C(O)C(CO)OC1n1nc(SCc2ccccc2)c(=O)[nH]c1=O (centres undefined)	> 100	> 100	> 100	> 100	> 100	> 100	> 100	> 100	> 100	> 100	> 100	> 100	> 100	> 100	> 100	> 100	> 100	> 100	> 100	> 100
CC(=O)N(C(=O)CC(=O)NNCc1ccccc1Cl)c1ccc(Cl)cc1	> 10	> 10	> 10	> 10	> 10	> 10	> 10	> 10	> 10	> 10	> 10	> 10	> 10	> 10	> 10	> 10	> 10	> 10	> 10	> 10
O=P1(N(CCCl)CCCl)Oc2c(Cl)cc(Cl)c(Cl)c2Cc2c(Cl)c(Cl)cc(Cl)c2O1	> 100	> 100	> 100	> 100	> 100	> 100	> 100	> 100	> 100	> 100	> 100	> 100	> 100	> 100	> 100	74.5	> 100	> 100	66.5	> 100
